Reference: patent US7566733B2, “Benzimidazole derivatives useful as selective androgen receptor modulators (sarms)” (priority 2004, dated 2009)

System: castrated male Sprague Dawley rats
Assay: Ventral Prostate and Seminal Vesicle Weight In Vivo Assay; also: key: active: the non weight adjusted prostate weight was ≦40 mg or the % Inhibition prostate weight, body weight adjusted was ≧40%@2 mg/day dosage; inactive: did not meet the specified criteria defined above
Details: inhibition of testosterone-enhanced prostate weight; immature castrated rats, once daily for five days, usually orally 40 mg/kg, with testosterone propionate 2 mg/kg s.c.
Experimental: Ventral Prostate and Seminal Vesicle Weight In Vivo Assay; also: key: active: the non weight adjusted prostate weight was ≦40 mg or the % Inhibition prostate weight, body weight adjusted was ≧40%@2 mg/day dosage; inactive: did not meet the specified criteria defined above
Immature (approximately 50 g) castrated male Sprague Dawley rats (Charles River) were treated once daily for five days with test compound (usually given orally at 40 mg/kg in a volume of 0.3 mL, in 30% cyclodextrin or 0.5% methylcellulose vehicle) and with testosterone propionate (given subcutaneously by injection at the nape of the neck at 2 mg/kg, in a volume of 0.1 mL in sesame oil). On the sixth day, the rats were euthanized by asphyxiation in carbon dioxide. Ventral prosatates and seminal vesicles were removed and their wet weights determined. Test compound activity was determined as the percent inhibition of testosterone-enhanced tissue weights, with a vehicle-treated control group set to zero percent and a testosterone alone-treated control group set to 100%.
Representative compounds of the present invention were tested according to the procedure described, with results as listed in Table 7 below. A test compound is listed as “active” if the non weight adjusted prostate weight was ≦40 mg or the % Inhibition prostate weight, body weight adjusted was ≧40%@2 mg/day dosage. ID50's, if determined, of ≦15 mg/day also indicated an “active” compound.

Structure (SMILES) | Activity
CC(=O)Nc1ccc(SCC(C)(O)c2nc3cc(Cl)c(Cl)cc3n2C)cc1 (centres unmarked) [Compound 56, N-{4-[2-(5,6-Dichloro-1-methyl-1H-benzoimidazol-2-yl)-2-hydroxy-propylsulfanyl]-phenyl}-acetamide] | inactive
COCn1c(CC(F)(F)F)nc2cc(Cl)c(Cl)cc21 [Compound 57, 5,6-Dichloro-1-methoxymethyl-2-(2,2,2-trifluoro-ethyl)-1H-benzoimidazole] | active
CSCn1c(CC(F)(F)F)nc2cc(Cl)c(Cl)cc21 [Compound 58, 5,6-Dichloro-1-methylsulfanylmethyl-2-(2,2,2-trifluoro-ethyl)-1H-benzoimidazole] | active
COC(c1nc2cc(Cl)c(Cl)cc2n1C)C(F)(F)F (centres unmarked) [Compound 61] | active
CCOC(c1nc2cc(Cl)c(Cl)cc2n1CC)C(F)(F)F (centres unmarked) [Compound 62] | active
FC(F)(F)Cc1nc2cc(Cl)c(C(F)(F)F)cc2[nH]1 [Compound 68] | active
N#Cc1cc2nc(CC(F)(F)F)[nH]c2cc1C(F)(F)F [Compound 69] | inactive
Cn1c(CC(F)(F)F)nc2cc(Cl)c(Cl)cc21 [Compound 71, 5,6-Dichloro-1-methyl-2-(2,2,2-trifluoro-ethyl)-1H-benzoimidazole] | active
FC(F)(F)Cc1nc2cc(Cl)c(Cl)cc2n1COc1ccc(Cl)cc1 [Compound 72] | inactive
CS(=O)(=O)Cn1c(CC(F)(F)F)nc2cc(Cl)c(Cl)cc21 [Compound 73, 5,6-Dichloro-1-methanesulfonylmethyl-2-(2,2,2-trifluoro-ethyl)-1H-benzoimidazole] | active
O=C(Cn1c(CC(F)(F)F)nc2cc(Cl)c(Cl)cc21)c1ccccc1 [Compound 74, 2-[5,6-Dichloro-2-(2,2,2-trifluoro-ethyl)-benzoimidazol-1-yl]-1-phenyl-ethanone] | inactive
O=C(Cn1c(CC(F)(F)F)nc2cc(Cl)c(Cl)cc21)c1ccc(F)cc1 [Compound 75, 2-[5,6-Dichloro-2-(2,2,2-trifluoro-ethyl)-benzoimidazol-1-yl]-1-(4-fluoro-phenyl)-ethanone] | active
O=C(Cn1c(CC(F)(F)F)nc2cc(Cl)c(Cl)cc21)c1ccc([N+](=O)[O-])cc1 [Compound 76, 2-[5,6-Dichloro-2-(2,2,2-trifluoro-ethyl)-benzoimidazol-1-yl]-1-(4-nitro-phenyl)-ethanone] | active
COc1ccc(C(=O)Cn2c(CC(F)(F)F)nc3cc(Cl)c(Cl)cc32)c(OC)c1 [Compound 77, 2-[5,6-Dichloro-2-(2,2,2-trifluoro-ethyl)-benzoimidazol-1-yl]-1-(2,4-dimethoxy-Phenyl)-ethanone] | inactive
O=C(Cn1c(CC(F)(F)F)nc2cc(Cl)c(Cl)cc21)c1ccc(Br)cc1 [Compound 79, 1-(4-Bromo-phenyl)-2-[5,6-dichloro-2-(2,2,2-trifluoro-ethyl)-benzoimidazol-1-yl]-ethanone] | inactive
CCC(=O)Cn1c(CC(F)(F)F)nc2cc(Cl)c(Cl)cc21 [Compound 80, 1-[5,6-Dichloro-2-(2,2,2-trifluoro-ethyl)-benzoimidazol-1-yl]-butan-2-one] | active
CCOC(=O)Cn1c(CC(F)(F)F)nc2cc(Cl)c(Cl)cc21 [Compound 81, [5,6-Dichloro-2-(2,2,2-trifluoro-ethyl)-benzoimidazol-1-yl]-acetic Acid Ethyl Ester] | inactive
O[C@H](c1nc2cc(Cl)c(Cl)cc2[nH]1)C(F)(F)F [Compound 82, (−)-1-(5,6-DiChloro-1H-benzoimidazol-2-yl-)2,2,2-trifluoro-ethanol] | active
O[C@@H](c1nc2cc(Cl)c(Cl)cc2[nH]1)C(F)(F)F [Compound 83, (+)-1-(5,6-DiChloro-1H-benzoimidazol-2-yl-)2,2,2-trifluoro-ethanol] | active
O=C(Cn1c(CC(F)(F)F)nc2cc(Cl)c(Cl)cc21)c1cc2ccccc2o1 [Compound 84, 1-Benzofuran-2-yl-2-[5,6-dichloro-2-(2,2,2-trifluoro-ethyl)-benzoimidazol-1-yl]-ethanone] | inactive
O=C(Cn1c(CC(F)(F)F)nc2cc(Cl)c(Cl)cc21)c1ccc(Cl)cc1 [Compound 85, 1-(4-Chloro-phenyl)-2-[5,6-dichloro-2-(2,2,2-trifluoro-ethyl)-benzoimidazol-1-yl]-ethanone] | inactive

Structure (SMILES) | Activity
COc1cccc(C(=O)Cn2c(CC(F)(F)F)nc3cc(Cl)c(Cl)cc32)c1 [Compound 86, 2-[5,6-Dichloro-2-(2,2,2-trifluoro-ethyl)-benzoimidazol-1-yl]-1-(3-methoxy-phenyl)-ethanone] | inactive
O=C(Cn1c(CC(F)(F)F)nc2cc(Cl)c(Cl)cc21)c1cccnc1 [Compound 87, 2-[5,6-Dichloro-2-(2,2,2-trifluoro-ethyl)-benzoimidazol-1-yl]-1-pyridin-3-yl-ethanone] | inactive
O=C(Cn1c(CC(F)(F)F)nc2cc(Cl)c(Cl)cc21)c1ccc(-c2ccccn2)s1 [Compound 88, 2-[5,6-Dichloro-2-(2,2,2-trifluoro-ethyl)-benzoimidazol-1-yl]-1-(5-pyridin-2-yl-thiophen-2-yl)-ethanone] | inactive
Fc1ccc(Cn2c(CC(F)(F)F)nc3cc(Cl)c(Cl)cc32)cc1 [Compound 89, 5,6-Dichloro-1-(4-fluoro-benzyl)-2-(2,2,2-trifluoro-ethyl)-1H-benzoimidazole] | active
COc1ccccc1C(=O)Cn1c(CC(F)(F)F)nc2cc(Cl)c(Cl)cc21 [Compound 90, 2-[5,6-Dichloro-2-(2,2,2-trifluoro-ethyl)-benzoimidazol-1-yl]-1-(2-methoxy-phenyl)-ethanone] | inactive
O=C(Cn1c(CC(F)(F)F)nc2cc(Cl)c(Cl)cc21)c1cccs1 [Compound 91, 2-[5,6-Dichloro-2-(2,2,2-trifluoro-ethyl)-benzoimidazol-1-yl]-1-thiophen-2-yl-ethanone] | active
O=C(Cn1c(CC(F)(F)F)nc2cc(Cl)c(Cl)cc21)c1ccccn1 [Compound 92, 2-[5,6-Dichloro-2-(2,2,2-trifluoro-ethyl)-benzoimidazol-1-yl]-1-pyridin-2-yl-ethanone] | active
FC(F)(F)Cc1nc2cc(Cl)c(Cl)cc2n1Cc1cccc(C(F)(F)F)c1 [Compound 93, 5,6-Dichloro-2-(2,2,2-trifluoro-ethyl)-1-(3-trifluoromethyl-benzyl)-1H-benzoimidazole] | active
Fc1c(F)c(F)c(Cn2c(CC(F)(F)F)nc3cc(Cl)c(Cl)cc32)c(F)c1F [Compound 94, 5,6-Dichloro-1-pentafluorophenylmethyl-2-(2,2,2-trifluoro-ethyl)-1H-benzoimidazole] | inactive
Cc1cccc(Cn2c(CC(F)(F)F)nc3cc(Cl)c(Cl)cc32)c1 [Compound 95, 5,6-Dichloro-1-(3-methyl-benzyl)-2-(2,2,2-trifluoro-ethyl)-1H-benzoimidazole] | inactive
O=C(Cn1c(CC(F)(F)F)nc2cc(Cl)c(Cl)cc21)c1cccc([N+](=O)[O-])c1 [Compound 96, 2-[5,6-Dichloro-2-(2,2,2-trifluoro-ethyl)-benzoimidazol-1-yl]-1-(3-nitro-phenyl)-ethanone] | inactive
FC(F)(F)Cc1nc2cc(Cl)c(Cl)cc2n1Cc1ccccc1 [Compound 97, 1-Benzyl-5,6-dichloro-2-(2,2,2-trifluoro-ethyl)-1H-benzoimidazole] | active
OCCn1c(CC(F)(F)F)nc2cc(Cl)c(Cl)cc21 [Compound 98, 2-[5,6-Dichloro-2-(2,2,2-trifluoro-ethyl)-benzoimidazol-1-yl]-ethanol] | active
FC(F)(F)Cc1nc2cc(Cl)c(Cl)cc2n1Cc1cccnc1 [Compound 99, 5,6-Dichloro-1-pyridin-3-ylmethyl-2-(2,2,2-trifluoro-ethyl)-1H-benzoimidazole] | active
FC(F)(F)Cc1nc2cc(Cl)c(Cl)cc2n1Cc1ccc(C(F)(F)F)cc1 [Compound 100, 5,6-Dichloro-2-(2,2,2-trifluoro-ethyl)-1-(4-trifluoromethyl-benzyl)-1H-benzoimidazole] | active
FC(F)(F)Cc1nc2cc(Cl)c(Cl)cc2n1Cc1ccc(OC(F)(F)F)cc1 [Compound 101, 5,6-Dichloro-2-(2,2,2-trifluoro-ethyl)-1-(4-trifluoromethoxy-benzyl)-1H-benzoimidazole] | inactive
FC(F)(F)Cc1nc2cc(Cl)c(Cl)cc2n1Cc1ccccn1 [Compound 102, 5,6-Dichloro-1-pyridin-2-ylmethyl-2-(2,2,2-trifluoro-ethyl)-1H-benzoimidazole] | active
O=C(Cn1c(CC(F)(F)F)nc2cc(Cl)c(Cl)cc21)c1ccc2c(c1)OCCO2 [Compound 104, 2-[5,6-Dichloro-2-(2,2,2-trifluoro-ethyl)-benzoimidazol-1-yl]-1-(2,3-dihydro-benzo[1,4]dioxin-6-yl)-ethanone] | inactive
O=[N+]([O-])c1ccc(Cn2c(CC(F)(F)F)nc3cc(Cl)c(Cl)cc32)cc1 [Compound 105, 5,6-Dichloro-1-(4-nitro-benzyl)-2-(2,2,2-trifluoro-ethyl)-1H-benzoimidazole] | active
CO[C@@](C(=O)OC(c1nc2cc(Cl)c(Cl)cc2[nH]1)C(F)(F)F)(c1ccccc1)C(F)(F)F (some centres unmarked) [Compound 106] | active
